Results taken from publication PMC6222902, “DPP-IV Inhibitory Potentials of Flavonol Glycosides Isolated from the Seeds of Lens culinaris: In Vitro and Molecular Docking Analyses” (Molecules : A Journal of Synthetic Chemistry and Natural …, 2018).

Columns and labels:
human recombinant DPP-IV = molecular target: T1, human recombinant DPP-IV (Homo sapiens, UniProt P27487); test: DPP-IV inhibitor screening assay kit (Cayman), fluorogenic substrate Gly-Pro-AMC; format: biochemical; conditions: mean ± SD of three independent experiments
T1 construct: purchased Cayman Chemical
T1 sequence (P27487 whole entry): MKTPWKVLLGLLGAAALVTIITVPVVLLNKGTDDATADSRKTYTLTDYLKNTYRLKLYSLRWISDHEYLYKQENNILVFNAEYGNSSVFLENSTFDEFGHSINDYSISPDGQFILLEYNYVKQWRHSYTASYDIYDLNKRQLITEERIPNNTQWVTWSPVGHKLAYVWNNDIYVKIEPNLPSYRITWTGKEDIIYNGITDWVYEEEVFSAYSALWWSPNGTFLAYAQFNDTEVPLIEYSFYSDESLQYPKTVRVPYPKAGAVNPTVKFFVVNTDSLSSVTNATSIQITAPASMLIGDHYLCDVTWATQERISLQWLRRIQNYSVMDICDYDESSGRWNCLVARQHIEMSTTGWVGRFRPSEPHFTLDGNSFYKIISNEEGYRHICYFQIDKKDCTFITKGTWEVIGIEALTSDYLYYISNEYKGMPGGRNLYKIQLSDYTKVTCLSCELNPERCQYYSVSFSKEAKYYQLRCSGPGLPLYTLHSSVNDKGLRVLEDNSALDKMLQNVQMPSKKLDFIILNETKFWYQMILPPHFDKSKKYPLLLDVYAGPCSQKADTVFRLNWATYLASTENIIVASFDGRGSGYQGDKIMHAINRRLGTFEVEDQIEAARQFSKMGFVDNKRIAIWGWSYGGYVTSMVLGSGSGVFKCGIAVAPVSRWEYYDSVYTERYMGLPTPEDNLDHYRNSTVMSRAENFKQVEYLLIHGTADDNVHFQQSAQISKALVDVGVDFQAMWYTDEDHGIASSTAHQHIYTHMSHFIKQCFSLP
Method: To the best of our knowledge, no prior studies examined the in vitro DPP-IV-inhibitory effects of 1–3, although the protein-ligand complex for 3 was examined via molecular docking analysis, using Discovery Studio 3.0 and Meta-Pocket (http://projects.biotec.tu-dresden.de/metapocket/).
DPP-IV activity was analyzed using a DPP-IV inhibitor screening assay kit (Cayman Chemical, Ann Arbor, MI, USA), which provided a fluorescence-based method for screening DPP-IV inhibitors. The assay used the fluorogenic substrate, Gly-Pro-Aminomethylcoumarine (AMC), to measure DPP-IV activity. Cleavage of the peptide bond by DPP released the free AMC group, resulting in fluorescence that could be analyzed using an excitation wavelength of 350–360 nm and an emission wavelength of 450–465 nm.
The tested compounds were initially dissolved in DMSO to produce 50 mM stock solution, and subsequently diluted to the required concentrations using DMSO, and then they were added to a 96-well plate in final volume of 10 μL and a final concentration of 50 μM. The assay procedure is described briefly according to the manufacturer’s protocols as follows: Diluted assay buffer (30 μL) and diluted enzyme solution (10 μL) were added to the 96-well plate containing 10 μL of solvent (blank) or solvent-dissolved test compounds. The reaction was initiated by adding 50 μL of a diluted substrate solution, and the plate was incubated for 30 min at 37 °C. After incubation, fluorescence with an excitation wavelength of 350 nm and an emission wavelength of 450 nm was monitored using a plate reader (TECAN, Männedorf, Switzerland). The percent inhibition was expressed as ([DPP-IV level of vehicle–treated control–DPP-IV level of test samples]/DPP-IV level of vehicle-treated control) × 100.

DPP-IV [1] = conditions: DPP-IV Glo Protease Assay kit (Promega); cited from earlier work
DPP-IV [2] = test system: DPP-IV; design: method as in PMID 22410395; conditions: cited from earlier work

| SMILES | IC50 (human recombinant DPP-IV) | IC50 (DPP-IV [1]) | in vivo bioactivities as a DPP-IV inhibitor (DPP-IV [2]) |
| --- | --- | --- | --- |
| CC1OC(OCC2OC(Oc3c(-c4ccc(O)cc4)oc4cc(OC5OC(C)C(O)C(O)C5O)cc(O)c4c3=O)C(OC3OC(CO)C(O)C(O)C3O)C(O)C2O)C(O)C(O)C1O (stereo not drawn) [Compound 2, kaempferol-3-O-β-gulcopyranosyl-(1→2)-[α-rhamnopyranosyl(1→6)]-β-galactopyranosyl-7-O-α-rhamnopyranoside] | 36.5 ± 0.78 µM |  |  |
| O=c1c(O)c(-c2ccc(O)cc2)oc2cc(O)cc(O)c12 [Compound 4, kaempferol] | 51.7 ± 4.83 µM | 0.49 ± 0.02 µM |  |
| O=c1c(O[C@@H]2O[C@H](CO)[C@@H](O)[C@H](O)[C@H]2O)c(-c2ccc(O)c(O)c2)oc2cc(O)cc(O)c12 [isoquercitrin] |  |  | strong in vivo bioactivities |
| C[C@@H]1O[C@@H](O[C@H]2[C@H](Oc3cc(O)c4c(c3)O[C@H](c3ccc(O)cc3)CC4=O)O[C@H](CO)[C@@H](O)[C@@H]2O)[C@H](O)[C@H](O)[C@H]1O [naringin] |  |  | strong in vivo bioactivities |

Second part, led by results:

| IC50 (human recombinant DPP-IV) | SMILES | IC50 (DPP-IV [1]) | in vivo bioactivities as a DPP-IV inhibitor (DPP-IV [2]) |
| --- | --- | --- | --- |
| 27.9 ± 1.29 µM | CC1OC(Oc2cc(O)c3c(=O)c(OC4OC(CO)C(O)C(O)C4OC4OC(CO)C(O)C(O)C4O)c(-c4ccc(O)cc4)oc3c2)C(O)C(O)C1O (stereo not drawn) [Compound 1, kaempferol-3-O-β-gulcopyranosyl-(1→2)-β-galactopyranosyl-7-O-α-rhamnopyranoside] |  |  |
| 37 ± 1.4 µM | CC1OC(OCC2OC(Oc3c(-c4ccc(O)cc4)oc4cc(OC5OC(C)C(O)C(O)C5O)cc(O)c4c3=O)C(O)C(O)C2O)C(O)C(O)C1O (stereo not drawn) [Compound 3, kaempferol-3-O-α-rhamnosyl(1→6)-O-β-galactopyranoside-7-O-α-rhamnopyranoside] |  |  |
